Laboratory results published in publication PMC11480411, “Mucosal sugars delineate pyrazine vs pyrazinone autoinducer signaling in Klebsiella oxytoca” (Nature Communications, 2024).

Legend:
Assay in all cases: PRESTO-Tango GPCR screen
Type in all cases: cell-based
Settings in all cases: 100 µM
[1] = biological target: T1, GPR4 (Homo sapiens, UniProt P46093)
T1 construct: purchased PRESTO-Tango GPCR kit (Roth lab / Addgene)
Description: (§1) The PRESTO-Tango analyses were performed as previously published. Briefly, HTLA cells, a HEK293 cell line that stably expresses β-arrestin-TEV and tTA-Luciferase (a kind gift from Gilad Barnea, Brown University), were plated in 96-well tissue culture plates (Eppendorf) in DMEM containing 10% FBS and 1% Penicillin/Streptomycin. One day after plating (after reaching approximately 90% confluence), 200 ng per well GPCR-Tango plasmids[37] in 20 μL DMEM were individually mixed with 400 ng polyethylenimine (Polysciences) in an equal volume of DMEM and incubated for 20 min at room temperature before adding the transfection mixture to the HTLA cells. 16-24 h after transfection, medium was replaced with 180 μL fresh DMEM containing 1% Penicillin/Streptomycin and 10 mM HEPES and 20 μL of 3 or 3-Homo to reach a final concentration of 100 μM. Supernatants were aspirated 20 h after stimulation and 50 μl per well of Bright-Glo solution (Promega) diluted 20-fold with PBS containing 20 mM HEPES was added into each well. After 15 min incubation at room temperature, luminescence was quantified using a Spectramax i3x microplate reader (Molecular Devices). Activation fold for each sample was calculated by dividing relative luminescence units (RLU) for each condition by RLUs from PBS control. Dose response curves of each chemical were performed in a similar way with varying the ligand concentration from 10^−4 M to 10^−15 M.

[2] = biological target: T2, GPR26 (Homo sapiens, UniProt Q8NDV2)
T2 construct: purchased PRESTO-Tango GPCR kit (Roth lab / Addgene)
T2 sequence (Q8NDV2 whole entry): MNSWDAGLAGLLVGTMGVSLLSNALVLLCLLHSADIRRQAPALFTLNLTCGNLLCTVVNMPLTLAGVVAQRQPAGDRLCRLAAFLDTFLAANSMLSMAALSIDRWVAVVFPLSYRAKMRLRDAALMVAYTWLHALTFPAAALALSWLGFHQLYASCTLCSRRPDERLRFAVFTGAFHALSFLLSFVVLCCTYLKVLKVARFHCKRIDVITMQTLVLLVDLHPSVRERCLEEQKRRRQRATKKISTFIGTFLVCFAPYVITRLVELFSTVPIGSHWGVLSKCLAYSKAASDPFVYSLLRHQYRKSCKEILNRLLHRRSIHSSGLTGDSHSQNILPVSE
Description: as §1

[3] = biological target: T3, HTR6 (Homo sapiens, UniProt P50406)
T3 construct: purchased PRESTO-Tango GPCR kit (Roth lab / Addgene)
Description: as §1

[4] = biological target: T4, P2RY4 (Homo sapiens, UniProt P51582)
T4 construct: purchased PRESTO-Tango GPCR kit (Roth lab / Addgene)
Description: as §1

[5] = biological target: T5, HTR2B (Homo sapiens, UniProt P41595)
T5 construct: purchased PRESTO-Tango GPCR kit (Roth lab / Addgene)
Description: as §1

[6] = biological target: T6, DRD5 (Homo sapiens, UniProt P21918)
T6 construct: purchased PRESTO-Tango GPCR kit (Roth lab / Addgene)
T6 sequence (P21918 whole entry): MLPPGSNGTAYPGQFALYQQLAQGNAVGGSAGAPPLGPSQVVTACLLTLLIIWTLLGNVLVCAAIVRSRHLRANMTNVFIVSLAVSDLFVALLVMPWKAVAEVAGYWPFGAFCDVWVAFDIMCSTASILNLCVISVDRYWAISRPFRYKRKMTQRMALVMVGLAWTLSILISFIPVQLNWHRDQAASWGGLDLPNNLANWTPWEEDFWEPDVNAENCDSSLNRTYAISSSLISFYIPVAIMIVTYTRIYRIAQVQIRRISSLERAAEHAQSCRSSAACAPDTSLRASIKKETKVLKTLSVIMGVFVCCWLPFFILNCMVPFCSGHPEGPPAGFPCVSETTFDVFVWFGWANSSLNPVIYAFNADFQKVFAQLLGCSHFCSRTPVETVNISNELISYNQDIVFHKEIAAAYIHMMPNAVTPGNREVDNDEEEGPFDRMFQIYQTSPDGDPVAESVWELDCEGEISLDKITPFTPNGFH
Description: as §1

[7] = biological target: T7, SSTR2 (Homo sapiens, UniProt P30874)
T7 construct: purchased PRESTO-Tango GPCR kit (Roth lab / Addgene)
T7 sequence (P30874 whole entry): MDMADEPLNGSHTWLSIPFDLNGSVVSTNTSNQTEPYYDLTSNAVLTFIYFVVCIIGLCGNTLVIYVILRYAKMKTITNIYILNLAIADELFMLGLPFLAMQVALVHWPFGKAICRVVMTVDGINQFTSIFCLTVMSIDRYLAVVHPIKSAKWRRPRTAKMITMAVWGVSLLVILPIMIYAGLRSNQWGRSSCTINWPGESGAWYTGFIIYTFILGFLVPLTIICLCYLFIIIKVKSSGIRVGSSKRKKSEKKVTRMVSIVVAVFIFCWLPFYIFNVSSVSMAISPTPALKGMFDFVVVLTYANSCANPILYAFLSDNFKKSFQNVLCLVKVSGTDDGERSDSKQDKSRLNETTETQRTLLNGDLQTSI
Description: as §1

[8] = biological target: T8, CCR3 (Homo sapiens, UniProt P51677)
T8 construct: purchased PRESTO-Tango GPCR kit (Roth lab / Addgene)
T8 sequence (P51677 whole entry): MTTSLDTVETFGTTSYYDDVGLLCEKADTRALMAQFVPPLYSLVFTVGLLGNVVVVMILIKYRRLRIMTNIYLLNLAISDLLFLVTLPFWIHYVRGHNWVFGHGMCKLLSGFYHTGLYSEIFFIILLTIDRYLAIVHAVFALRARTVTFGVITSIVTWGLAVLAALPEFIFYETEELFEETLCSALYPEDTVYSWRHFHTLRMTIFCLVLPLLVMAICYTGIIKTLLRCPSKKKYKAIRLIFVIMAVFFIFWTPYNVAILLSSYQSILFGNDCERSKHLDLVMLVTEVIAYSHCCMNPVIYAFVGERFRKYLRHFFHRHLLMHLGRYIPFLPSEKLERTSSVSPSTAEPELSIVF
Description: as §1

[9] = biological target: T9, C3AR1 (Homo sapiens, UniProt Q16581)
T9 construct: purchased PRESTO-Tango GPCR kit (Roth lab / Addgene)
Description: as §1

[10] = biological target: T10, RXFP4 (Homo sapiens, UniProt Q8TDU9)
T10 construct: purchased PRESTO-Tango GPCR kit (Roth lab / Addgene)
Description: as §1

[11] = biological target: T11, GRPR (Homo sapiens, UniProt P30550)
T11 construct: purchased PRESTO-Tango GPCR kit (Roth lab / Addgene)
T11 sequence (P30550 whole entry): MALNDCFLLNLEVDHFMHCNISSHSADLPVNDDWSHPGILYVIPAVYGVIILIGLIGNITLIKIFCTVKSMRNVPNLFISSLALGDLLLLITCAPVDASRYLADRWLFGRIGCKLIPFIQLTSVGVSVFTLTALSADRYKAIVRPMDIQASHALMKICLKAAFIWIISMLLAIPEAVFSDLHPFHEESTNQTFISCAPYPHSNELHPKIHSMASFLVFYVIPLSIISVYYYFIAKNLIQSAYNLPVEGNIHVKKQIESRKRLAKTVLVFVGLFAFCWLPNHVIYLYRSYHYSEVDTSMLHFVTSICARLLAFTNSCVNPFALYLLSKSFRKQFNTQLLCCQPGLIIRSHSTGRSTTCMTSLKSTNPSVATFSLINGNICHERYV
Description: as §1

[12] = biological target: T12, GRM8 (Homo sapiens, UniProt O00222)
T12 construct: purchased PRESTO-Tango GPCR kit (Roth lab / Addgene)
Description: as §1

[13] = biological target: T13, CYSLTR1 (Homo sapiens, UniProt Q9Y271)
T13 construct: purchased PRESTO-Tango GPCR kit (Roth lab / Addgene)
Description: as §1

[14] = biological target: T14, NPS (Homo sapiens, UniProt Q6W5P4)
T14 construct: purchased PRESTO-Tango GPCR kit (Roth lab / Addgene)
Description: as §1

[15] = biological target: T15, CHRM2 (Homo sapiens, UniProt P08172)
T15 construct: purchased PRESTO-Tango GPCR kit (Roth lab / Addgene)
Description: as §1

[16] = biological target: T16, HCA1 (Homo sapiens, UniProt Q9BXC0)
T16 construct: purchased PRESTO-Tango GPCR kit (Roth lab / Addgene)
T16 sequence (Q9BXC0 whole entry): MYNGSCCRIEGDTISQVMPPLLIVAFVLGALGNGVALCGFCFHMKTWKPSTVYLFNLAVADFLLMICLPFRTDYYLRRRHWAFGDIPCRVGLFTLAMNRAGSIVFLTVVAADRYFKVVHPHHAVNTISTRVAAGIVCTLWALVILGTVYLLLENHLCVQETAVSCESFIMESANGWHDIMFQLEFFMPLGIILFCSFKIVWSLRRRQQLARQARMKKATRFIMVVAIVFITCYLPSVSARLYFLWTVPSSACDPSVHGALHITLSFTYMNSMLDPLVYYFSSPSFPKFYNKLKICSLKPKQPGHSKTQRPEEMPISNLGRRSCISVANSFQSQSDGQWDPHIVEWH
Description: as §1

[17] = biological target: T17, MC1R (Homo sapiens, UniProt Q01726)
T17 construct: purchased PRESTO-Tango GPCR kit (Roth lab / Addgene)
Description: as §1

[18] = biological target: T18, CCKBR (Homo sapiens, UniProt P32239)
T18 construct: purchased PRESTO-Tango GPCR kit (Roth lab / Addgene)
Description: as §1

[19] = biological target: T19, GPR126 (Homo sapiens, UniProt Q86SQ4)
T19 construct: purchased PRESTO-Tango GPCR kit (Roth lab / Addgene)
Description: as §1

[20] = biological target: T20, ADRA2C (Homo sapiens, UniProt P18825)
T20 construct: purchased PRESTO-Tango GPCR kit (Roth lab / Addgene)
Description: as §1

[21] = biological target: T21, MRGPRX2 (Homo sapiens, UniProt Q96LB1)
T21 construct: purchased PRESTO-Tango GPCR kit (Roth lab / Addgene)
Description: as §1

[22] = biological target: T22, GPBA (Homo sapiens, UniProt Q8TDU6)
T22 construct: purchased PRESTO-Tango GPCR kit (Roth lab / Addgene)
T22 sequence (Q8TDU6 whole entry): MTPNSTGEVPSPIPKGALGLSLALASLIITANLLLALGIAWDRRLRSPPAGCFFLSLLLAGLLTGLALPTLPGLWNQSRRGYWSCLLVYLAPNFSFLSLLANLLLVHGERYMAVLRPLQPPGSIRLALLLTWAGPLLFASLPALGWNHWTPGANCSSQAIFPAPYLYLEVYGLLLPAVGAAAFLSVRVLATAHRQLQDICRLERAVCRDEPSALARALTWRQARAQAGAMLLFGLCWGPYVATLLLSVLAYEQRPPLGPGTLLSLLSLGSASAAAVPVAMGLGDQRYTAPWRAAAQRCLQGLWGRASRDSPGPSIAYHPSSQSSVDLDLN
Description: as §1

[23] = biological target: T23, ADRA2A (Homo sapiens, UniProt P08913)
T23 construct: purchased PRESTO-Tango GPCR kit (Roth lab / Addgene)
Description: as §1

[24] = biological target: T24, CCR10 (Homo sapiens, UniProt P46092)
T24 construct: purchased PRESTO-Tango GPCR kit (Roth lab / Addgene)
Description: as §1

[25] = biological target: T25, EDNRA (Homo sapiens, UniProt P25101)
T25 construct: purchased PRESTO-Tango GPCR kit (Roth lab / Addgene)
T25 sequence (P25101 21-427): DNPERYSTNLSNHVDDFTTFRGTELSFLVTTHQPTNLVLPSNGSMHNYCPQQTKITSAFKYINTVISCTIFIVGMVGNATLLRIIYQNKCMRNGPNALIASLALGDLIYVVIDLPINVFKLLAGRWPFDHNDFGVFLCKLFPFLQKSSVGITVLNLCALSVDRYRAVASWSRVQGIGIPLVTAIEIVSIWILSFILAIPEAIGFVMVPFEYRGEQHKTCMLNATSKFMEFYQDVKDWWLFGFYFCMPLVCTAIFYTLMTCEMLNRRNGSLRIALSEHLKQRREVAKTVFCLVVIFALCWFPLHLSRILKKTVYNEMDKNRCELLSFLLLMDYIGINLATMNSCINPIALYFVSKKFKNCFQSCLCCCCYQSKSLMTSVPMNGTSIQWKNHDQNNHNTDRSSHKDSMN
Description: as §1

[26] = biological target: T26, LTB4R (Homo sapiens, UniProt Q15722)
T26 construct: purchased PRESTO-Tango GPCR kit (Roth lab / Addgene)
T26 sequence (Q15722 whole entry): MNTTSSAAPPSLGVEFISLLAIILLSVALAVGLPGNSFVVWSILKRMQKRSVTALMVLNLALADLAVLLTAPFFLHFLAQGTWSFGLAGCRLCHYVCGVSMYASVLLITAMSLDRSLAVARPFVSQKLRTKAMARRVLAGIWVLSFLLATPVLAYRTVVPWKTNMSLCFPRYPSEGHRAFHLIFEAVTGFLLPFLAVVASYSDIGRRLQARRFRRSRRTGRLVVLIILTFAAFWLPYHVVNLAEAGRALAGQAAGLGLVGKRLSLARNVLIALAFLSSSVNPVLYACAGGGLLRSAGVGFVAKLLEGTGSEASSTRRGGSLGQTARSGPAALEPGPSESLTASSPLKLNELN
Description: as §1

[27] = biological target: T27, OPRL1 (Homo sapiens, UniProt P41146)
T27 construct: purchased PRESTO-Tango GPCR kit (Roth lab / Addgene)
T27 sequence (P41146 whole entry): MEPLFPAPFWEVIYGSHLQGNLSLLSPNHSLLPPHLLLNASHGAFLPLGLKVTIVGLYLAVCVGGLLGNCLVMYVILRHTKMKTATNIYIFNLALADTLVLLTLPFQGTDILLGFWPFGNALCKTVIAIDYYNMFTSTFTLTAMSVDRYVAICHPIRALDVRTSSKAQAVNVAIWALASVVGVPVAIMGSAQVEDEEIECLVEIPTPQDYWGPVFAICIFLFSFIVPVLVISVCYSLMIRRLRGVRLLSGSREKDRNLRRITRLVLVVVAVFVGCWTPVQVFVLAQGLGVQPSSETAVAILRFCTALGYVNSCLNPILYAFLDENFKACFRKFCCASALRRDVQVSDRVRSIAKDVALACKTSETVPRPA
Description: as §1

[28] = biological target: T28, P2RY2 (Homo sapiens, UniProt P41231)
T28 construct: purchased PRESTO-Tango GPCR kit (Roth lab / Addgene)
Description: as §1

[29] = biological target: T29, F2R (Homo sapiens, UniProt P25116)
T29 construct: purchased PRESTO-Tango GPCR kit (Roth lab / Addgene)
Description: as §1

[30] = biological target: T30, MC2R (Homo sapiens, UniProt Q01718)
T30 construct: purchased PRESTO-Tango GPCR kit (Roth lab / Addgene)
Description: as §1

[31] = biological target: T31, ADRA2B (Homo sapiens, UniProt P18089)
T31 construct: purchased PRESTO-Tango GPCR kit (Roth lab / Addgene)
Description: as §1

[32] = biological target: T32, ADRB1 (Homo sapiens, UniProt P08588)
T32 construct: purchased PRESTO-Tango GPCR kit (Roth lab / Addgene)
Description: as §1

[33] = biological target: T33, TBXA2R (Homo sapiens, UniProt P21731)
T33 construct: purchased PRESTO-Tango GPCR kit (Roth lab / Addgene)
T33 sequence (P21731 whole entry): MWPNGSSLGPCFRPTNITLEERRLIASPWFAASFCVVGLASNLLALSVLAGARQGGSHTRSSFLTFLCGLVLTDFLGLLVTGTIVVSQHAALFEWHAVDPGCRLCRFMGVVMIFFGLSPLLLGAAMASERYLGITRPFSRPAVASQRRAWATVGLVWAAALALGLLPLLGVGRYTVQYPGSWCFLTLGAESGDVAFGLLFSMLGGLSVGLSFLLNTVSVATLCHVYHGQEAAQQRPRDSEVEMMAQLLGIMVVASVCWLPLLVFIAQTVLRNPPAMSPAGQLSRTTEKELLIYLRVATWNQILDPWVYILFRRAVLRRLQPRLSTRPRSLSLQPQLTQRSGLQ
Description: as §1

[34] = biological target: T34, GPR63 (Homo sapiens, UniProt Q9BZJ6)
T34 construct: purchased PRESTO-Tango GPCR kit (Roth lab / Addgene)
T34 sequence (Q9BZJ6 whole entry): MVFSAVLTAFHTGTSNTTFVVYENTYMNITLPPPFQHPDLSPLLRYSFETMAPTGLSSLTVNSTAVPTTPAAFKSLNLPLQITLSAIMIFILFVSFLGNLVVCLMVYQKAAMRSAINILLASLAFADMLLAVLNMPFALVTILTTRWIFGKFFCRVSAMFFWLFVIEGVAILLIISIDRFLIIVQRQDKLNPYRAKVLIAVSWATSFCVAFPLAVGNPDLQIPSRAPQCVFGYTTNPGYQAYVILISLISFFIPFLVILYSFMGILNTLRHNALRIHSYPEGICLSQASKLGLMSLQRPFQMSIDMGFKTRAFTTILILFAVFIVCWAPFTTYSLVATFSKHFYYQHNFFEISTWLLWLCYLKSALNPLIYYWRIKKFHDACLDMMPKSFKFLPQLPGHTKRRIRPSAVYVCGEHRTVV
Description: as §1

[35] = biological target: T35, CCR2 (Homo sapiens, UniProt P41597)
T35 construct: purchased PRESTO-Tango GPCR kit (Roth lab / Addgene)
T35 sequence (P41597 whole entry): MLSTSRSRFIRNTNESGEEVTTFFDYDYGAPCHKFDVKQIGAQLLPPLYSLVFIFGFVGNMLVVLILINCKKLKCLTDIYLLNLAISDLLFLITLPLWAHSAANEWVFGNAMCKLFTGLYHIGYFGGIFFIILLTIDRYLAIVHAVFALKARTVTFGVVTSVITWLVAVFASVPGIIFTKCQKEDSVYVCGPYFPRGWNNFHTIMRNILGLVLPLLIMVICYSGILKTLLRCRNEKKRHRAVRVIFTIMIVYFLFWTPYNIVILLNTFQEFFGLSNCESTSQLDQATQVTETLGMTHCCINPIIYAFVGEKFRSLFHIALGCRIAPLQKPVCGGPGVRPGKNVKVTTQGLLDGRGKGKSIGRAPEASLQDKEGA
Description: as §1

[36] = biological target: T36, GPR143 (Homo sapiens, UniProt P51810)
T36 construct: purchased PRESTO-Tango GPCR kit (Roth lab / Addgene)
Description: as §1

Compound	GPCR activation (heatmap value) [1]	GPCR activation (heatmap value) [2]	GPCR activation (heatmap value) [3]	GPCR activation (heatmap value) [4]	GPCR activation (heatmap value) [5]	GPCR activation (heatmap value) [6]	GPCR activation (heatmap value) [7]	GPCR activation (heatmap value) [8]	GPCR activation (heatmap value) [9]	GPCR activation (heatmap value) [10]	GPCR activation (heatmap value) [11]	GPCR activation (heatmap value) [12]	GPCR activation (heatmap value) [13]	GPCR activation (heatmap value) [14]	GPCR activation (heatmap value) [15]	GPCR activation (heatmap value) [16]	GPCR activation (heatmap value) [17]	GPCR activation (heatmap value) [18]	GPCR activation (heatmap value) [19]	GPCR activation (heatmap value) [20]	further results
CC(C)Cc1ncc(CCCCNC(=N)N)[nH]c1=O [3-Homo]	0.3486	-1.573	-0.2493	0.7408	-0.5052	-0.03134	0.327	-0.05608	-0.001199	-0.8625	-0.6902	0.556	-0.2334	-0.3425	0.1441	-0.6134	-0.8565	0.2356	0.0787	0.6954	GPCR activation (heatmap value) [21]: -0.6668; GPCR activation (heatmap value) [22]: -0.06085; GPCR activation (heatmap value) [23]: -0.8336; GPCR activation (heatmap value) [24]: 0.7826; GPCR activation (heatmap value) [25]: -0.554; GPCR activation (heatmap value) [26]: 0.1103; GPCR activation (heatmap value) [27]: 0.777; GPCR activation (heatmap value) [28]: -0.0487; GPCR activation (heatmap value) [29]: -0.4507; GPCR activation (heatmap value) [30]: -0.5707; GPCR activation (heatmap value) [31]: -0.5041; GPCR activation (heatmap value) [32]: 0.6163; GPCR activation (heatmap value) [33]: 0.3386; GPCR activation (heatmap value) [34]: 0.374; GPCR activation (heatmap value) [35]: -0.2415; GPCR activation (heatmap value) [36]: -0.07136
CC(C)Cc1ncc(CCCNC(=N)N)[nH]c1=O [compound 3]	0.5113	2.339	0.5944	0.7544	-0.6262	1.05	-0.806	-0.6954	-0.2058	-0.6712	0.1678	-0.7817	0.3416	-0.7734	0.33	0.05882	-1.487	0.2979	-0.3797	0.2266	GPCR activation (heatmap value) [21]: 0.1651; GPCR activation (heatmap value) [22]: -0.136; GPCR activation (heatmap value) [23]: 0.08001; GPCR activation (heatmap value) [24]: 0.9946; GPCR activation (heatmap value) [25]: -0.2835; GPCR activation (heatmap value) [26]: -0.07274; GPCR activation (heatmap value) [27]: 0.326; GPCR activation (heatmap value) [28]: 0.0313; GPCR activation (heatmap value) [29]: -0.02389; GPCR activation (heatmap value) [30]: 0.1631; GPCR activation (heatmap value) [31]: 2.203; GPCR activation (heatmap value) [32]: 0.4729; GPCR activation (heatmap value) [33]: 0.04774; GPCR activation (heatmap value) [34]: 0.05297; GPCR activation (heatmap value) [35]: 0.059; GPCR activation (heatmap value) [36]: 0.5685
